Data reported in US20100317528A1, “HERBICIDE CONTAINING BENZOYLPYRAZOLE COMPOUND” (ISHIHARA SANGYO KAISHA, LTD., priority 2006, published 2010).

Assays:
Assay type in all cases: in vivo
[1] = system: barnyardgrass (Echinochloa crus-galli L.); assay: Test Example 1: foliar treatment, upland pot test, barnyardgrass; conditions: 31 g/ha active ingredient, observed 17th to 25th day after application
[2] = system: crabgrass (Digitaria sanguinalis L.); assay: Test Example 1: foliar treatment, upland pot test, crabgrass; conditions: 31 g/ha active ingredient, observed 17th to 25th day after application
[3] = system: green foxtail (Setaria viridis L.); assay: Test Example 1: foliar treatment, upland pot test, green foxtail; conditions: 31 g/ha active ingredient, observed 17th to 25th day after application
[4] = system: redroot pigweed (Amaranthus retroflexus L.); assay: Test Example 1: foliar treatment, upland pot test, redroot pigweed; conditions: 31 g/ha active ingredient, observed 17th to 25th day after application
In short: (§1)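 Upland soil pots, sown; foliar spray at pigweed cotyledon–2.0 leaf, velvetleaf 0.1–1.5 leaf, rice 1.0–3.0 leaf, wheat 1.7–3.4 leaf. WP/EC formulations, prescribed a.i. rate, 500 L/ha spray volume + 0.1 vol % spreader. Visual % inhibition, d17–25.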

[5] = system: prickly sida (Sida spinosa L.); assay: Test Example 1: foliar treatment, upland pot test, prickly sida; conditions: 31 g/ha active ingredient, observed 17th to 25th day after application
[6] = system: velvetleaf (Abutilon theophrasti MEDIC.); assay: Test Example 1: foliar treatment, upland pot test, velvetleaf; conditions: 31 g/ha active ingredient, observed 17th to 25th day after application
In short: as §1

rice (Oryza sativa L.) [7] = assay: Test Example 1: foliar treatment, upland pot test, rice; conditions: 31 g/ha active ingredient, observed 17th to 25th day after application
In short: as §1

wheat (Triticum spp.) [8] = assay: Test Example 1: foliar treatment, upland pot test, wheat; conditions: 31 g/ha active ingredient, observed 17th to 25th day after application
In short: as §1

corn (Zea mays L.) [9] = assay: Test Example 1: foliar treatment, upland pot test, corn; conditions: 31 g/ha active ingredient, observed 17th to 25th day after application
[10] = system: soybean (Glycine max Merr.); assay: Test Example 1: foliar treatment, upland pot test, soybean; conditions: 31 g/ha active ingredient, observed 17th to 25th day after application
[11] = system: crabgrass (Digitaria sanquinalis L.); assay: Test Example 2: soil application on the day after sowing, crabgrass; conditions: 250 g/ha active ingredient, observed 19th to 28th day after application
In short: (§2)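 Herbicidal activity is scored on a 0–100% visual scale of growth inhibition 19–28 d after treatment. The active ingredient, weighed to prescribed doses, is applied as a diluted formulation (500 L water/ha) to soil one day post-sowing.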

[12] = system: redroot pigweed (Amaranthus retroflexus L.); assay: Test Example 2: soil application on the day after sowing, redroot pigweed; conditions: 250 g/ha active ingredient, observed 19th to 28th day after application
In short: as §2

[13] = system: velvetleaf (Abutilon theophrasti MEDIC.); assay: Test Example 2: soil application on the day after sowing, velvetleaf; conditions: 250 g/ha active ingredient, observed 19th to 28th day after application
In short: as §2

corn (Zea mays L.) [14] = assay: Test Example 2: soil application on the day after sowing, corn; conditions: 250 g/ha active ingredient, observed 19th to 28th day after application
In short: as §2

[15] = system: green foxtail (Setaria viridis L.); assay: Test Example 3: foliar treatment at later leaf stage, green foxtail; conditions: 4.0 to 4.5 leaf stage, MSO Concentrate 0.5 vol %, 300 L/ha
Text: (§3) Upland field soil was put into a 1/1,000,000 hectare pot, and seeds of various plants were sown. When the respective plants reached predetermined leaf stage ((1) green foxtail (Setaria viridis L.): 4.0 to 4.5 leaf stage, (2) guineagrass (Panicum maximum Jacq.): 3.5 to 4.3 leaf stage, and (3) corn (Zea mays L.): 4.0 to 4.3 leaf stage, wettable powders or emulsifiable concentrates of compounds of the above formula (I), prepared in accordance with a conventional preparation method, were weighed so that the active ingredients became the prescribed amounts, and diluted with water in an amount corresponding to 300 or 500 liter per 1 hectare (containing of an agricultural spreader (MSO concentrate, manufactured by Cognis Corporation or “KUSARINOH”, manufactured by NIHON NOHYAKU CO., LTD.). The spray solutions thus prepared were applied for foliar treatment by a small sprayer.
(§4) On the 18th to 24th day after application, the state of growth of the respective plants was visually observed, and the herbicidal effect was evaluated by a growth inhibition rate (%) of 0 (equivalent to the non-treated area) to 100% (complete kill).

[16] = system: guineagrass (Panicum maximum Jacq.); assay: Test Example 3: foliar treatment at later leaf stage, guineagrass; conditions: Megathyrsus maximus, 3.5 to 4.3 leaf stage, KUSARINOH 0.1 vol %, 500 L/ha, read-out: Growth inhibition rate (%) (18th day after application) Guineagrass
Text: as §3, §4

corn (Zea mays L.) [17] = assay: Test Example 3: foliar treatment at later leaf stage, corn; conditions: Zea mays, 4.0 to 4.3 leaf stage, MSO Concentrate 0.5 vol %, 300 L/ha, read-out: Growth inhibition rate (%) (21st day after application) Corn
Text: as §3, §4

[18] = system: barnyardgrass (Echinochloa crus-galli L.); assay: Test Example 2: soil application on the day after sowing, barnyardgrass; conditions: 250 g/ha active ingredient, observed 19th to 28th day after application
In short: as §2

[19] = system: green foxtail (Setaria viridis L.); assay: Test Example 2: soil application on the day after sowing, green foxtail; conditions: 250 g/ha active ingredient, observed 19th to 28th day after application
In short: as §2

[20] = system: prickly sida (Sida spinosa L.); assay: Test Example 2: soil application on the day after sowing, prickly sida; conditions: 250 g/ha active ingredient, observed 19th to 28th day after application
In short: as §2

rice (Oryza sativa L.) [21] = assay: Test Example 2: soil application on the day after sowing, rice; conditions: 250 g/ha active ingredient, observed 19th to 28th day after application
In short: as §2

wheat (Triticum spp.) [22] = assay: Test Example 2: soil application on the day after sowing, wheat; conditions: 250 g/ha active ingredient, observed 19th to 28th day after application
In short: as §2

[23] = system: soybean (Glycine max Merr.); assay: Test Example 2: soil application on the day after sowing, soybean; conditions: 250 g/ha active ingredient, observed 19th to 28th day after application
In short: as §2

[24] = Amaranthus retroflexus, read-out: Growth inhibition rate (%) Redroot pigweed
[25] = Abutilon theophrasti, read-out: Growth inhibition rate (%) Velvetleaf
[26] = Zea mays, read-out: Growth inhibition rate (%) Corn

| Structure (SMILES) | Growth inhibition rate (%) Barnyardgrass [1] [%] | Growth inhibition rate (%) Crabgrass [2] [%] | Growth inhibition rate (%) Green foxtail [3] [%] | Growth inhibition rate (%) Redroot pigweed [4] [%] | Growth inhibition rate (%) Prickly sida [5] [%] | Growth inhibition rate (%) Velvetleaf [6] [%] | Growth inhibition rate (%) Rice (rice (Oryza sativa L.) [7]) [%] | Growth inhibition rate (%) Wheat (wheat (Triticum spp.) [8]) [%] | Growth inhibition rate (%) Corn (corn (Zea mays L.) [9]) [%] | Growth inhibition rate (%) Soybean [10] [%] | Growth inhibition rate (%) Barnyardgrass [18] [%] | Growth inhibition rate (%) Crabgrass [11] [%] | Growth inhibition rate (%) Green foxtail [19] [%] | Growth inhibition rate (%) Redroot pigweed [12] [%] | Growth inhibition rate (%) Prickly sida [20] [%] | Growth inhibition rate (%) Velvetleaf [13] [%] | Growth inhibition rate (%) Rice (rice (Oryza sativa L.) [21]) [%] | Growth inhibition rate (%) Wheat (wheat (Triticum spp.) [22]) [%] | Growth inhibition rate (%) Corn (corn (Zea mays L.) [14]) [%] | Growth inhibition rate (%) Soybean [23] [%] | further results |
| --- | --- | --- | --- | --- | --- | --- | --- | --- | --- | --- | --- | --- | --- | --- | --- | --- | --- | --- | --- | --- | --- |
| COCCOc1c(S(C)(=O)=O)ccc(C(=O)c2cnn(C)c2O)c1C [Compound No. 151, 5-hydroxy-1-methylpyrazol-4-yl 3-(2-methoxyethoxy)-2-methyl-4-(methylsulfonyl)phenyl ketone] |  |  |  |  |  |  |  |  |  |  |  |  |  |  |  |  |  |  |  |  | inhibition at 31 g/ha ([1]; Echinochloa crus-galli, read-out: Growth inhibition rate (%) Barnyardgrass): 100%; inhibition at 31 g/ha ([2]; Digitaria sanguinalis, read-out: Growth inhibition rate (%) Crabgrass): 100%; inhibition at 31 g/ha ([3]; Setaria viridis, read-out: Growth inhibition rate (%) Green foxtail): 100%; inhibition at 31 g/ha [4, 24]: 100%; inhibition at 31 g/ha ([5]; Sida spinosa, read-out: Growth inhibition rate (%) Prickly sida): 80%; inhibition at 31 g/ha [6, 25]: 98%; inhibition at 31 g/ha (rice (Oryza sativa L.) [7]; Oryza sativa, read-out: Growth inhibition rate (%) Rice): 60%; inhibition at 31 g/ha (wheat (Triticum spp.) [8]; Triticum, read-out: Growth inhibition rate (%) Wheat): 10%; inhibition at 31 g/ha (corn (Zea mays L.) [9]; [26]): 30%; inhibition at 31 g/ha ([10]; Glycine max, read-out: Growth inhibition rate (%) Soybean): 95%; inhibition at 250 g/ha ([11]; Digitaria, read-out: Growth inhibition rate (%) Crabgrass): 100%; inhibition at 250 g/ha [12, 24]: 100%; inhibition at 250 g/ha [13, 25]: 70%; inhibition at 250 g/ha (corn (Zea mays L.) [14]; [26]): 0%; inhibition at 7 g/ha ([15]; Setaria viridis, 7 g/ha, read-out: Growth inhibition rate (%) (24th day after application) Green foxtail): 97%; inhibition at 15 g/ha ([15]; Setaria viridis, 15 g/ha, read-out: Growth inhibition rate (%) (24th day after application) Green foxtail): 100%; inhibition at 31 g/ha [16]: 93%; inhibition at 120 g/ha (corn (Zea mays L.) [17]): 2% |
| COCCOc1c(S(C)(=O)=O)ccc(C(=O)c2cnn(C(C)C)c2O)c1C [compound 258] | 100 | 100 | 100 | 95 | 50 | 98 | 95 | 0 | 10 | 90 | 100 | 100 | 100 | 100 | 40 | 100 | 80 | 0 | 0 | 0 | Growth inhibition rate (%) (24th day after application) Green foxtail ([15]; 7 g/ha): 95%; Growth inhibition rate (%) (24th day after application) Green foxtail ([15]; 15 g/ha): 100% |
| COCCOc1c(S(C)(=O)=O)ccc(C(=O)c2c(C)nn(C)c2O)c1C [compound 259] | 95 | 95 | 100 | 95 | 60 | 98 | 70 | 0 | 0 | 95 | 10 | 100 | 60 | 90 | 0 | 70 | 10 | 0 | 0 | 20 |  |
| CCc1nn(C)c(O)c1C(=O)c1ccc(S(C)(=O)=O)c(OCCOC)c1C [compound 261] | 90 | 90 | 80 | 95 | 50 | 95 | 80 | 5 | 0 | 50 | 50 | 95 | 60 | 100 | 20 | 30 | 20 | 0 | 20 | 0 |  |
